Assay results reported in patent US11337976B2 (Plexxikon Inc., priority 2011, dated 2022).

Test system: A375 melanoma cells (B-Raf V600E mutation)
Assay: A375 (A375_P-ERK) cell activity / cell growth inhibition assay
Assay type: cell-based, human
Settings: Homo sapiens, A-375; A375 cells (text: A375_P-ERK)
Description: Compounds are assessed in a variety of cell based assays. For example human cell lines with B-RafV600E mutation (A375 melanoma, SKMEL3 melanoma, and COLO205 colon adenocarcinoma), as well as tumorigenic cell lines with wild-type B-RAF (SW620 colon adenocarcinoma) or with Ras mutations (SKMEL2 melanoma and IPC298 melanoma).
On day 1, cells are counted, then centrifuged in a conical tube for 5 minutes at 1000 rpm.
On day 2, compound at a maximum concentration of 5 mM is serially diluted 1:3 (e.g. 10 μL with 30 μL dimethyl sulfoxide) for a total of 8 point titration with DMSO as a control. A 1 μL aliquot of each dilution point and control is added to 249 μL growth media and 50 μL is added to a well containing cells, providing 10 μM compound at the maximum concentration point. The cells are incubated for 3 days at 37° C. in 5% CO2.
ATPlite is added 25 μL to each well, shake for 2 minutes, and the cells are incubated at room temperature for 10 minutes, then luminescence is read on Safire reader. The measured luminescence correlates directly with cell number, such that the reading as a function of compound concentration is used to determine the IC50 value.

| SMILES | IC50 |
| --- | --- |
| CCN(C)S(=O)(=O)Nc1cccc(C(=O)c2c[nH]c3ncc(-c4cnc(C5CC5)nc4)cc23)c1F [P-0058] | < 1 µM |
| CN(C1CC1)S(=O)(=O)Nc1cccc(C(=O)c2c[nH]c3ncc(-c4cnc(C5CC5)nc4)cc23)c1F [P-0249, 3-[3-[[cyclopropyl(methyl)sulfamoyl]amino]-2-fluoro-benzoyl]-5-(2-cyclopropylpyrimidin-5-yl)-1H-pyrrolo[2,3-b]pyridine] | < 1 µM |
| CCN(C)S(=O)(=O)Nc1cccc(C(=O)c2c[nH]c3ncc(-c4ccc(C#N)nc4)cc23)c1F [P-0102, 5-(6-cyano-3-pyridyl)-3-[3-[[ethyl(methyl)sulfamoyl]amino]-2-fluoro-benzoyl]-1H-pyrrolo[2,3-b]pyridine] | < 1 µM |
| CCC(C)S(=O)(=O)Nc1cccc(C(=O)c2c[nH]c3ncc(-c4cnc(OC)nc4)cc23)c1F (centres unmarked) [P-0224, N-[2-fluoro-3-[5-(2-methoxypyrimidin-5-yl)-1H-pyrrolo[2,3-b]pyridine-3-carbonyl]phenyl]butane-2-sulfonamide] | < 1 µM |
| CC(C)c1ncc(-c2cnc3[nH]cc(C(=O)c4cccc(NS(=O)(=O)N(C)C)c4F)c3c2)cn1 [P-0051, 3-[3-(dimethylsulfamoylamino)-2-fluoro-benzoyl]-5-(2-isopropylpyrimidin-5-yl)-1H-pyrrolo[2,3-b]pyridine] | < 1 µM |
| CCC(C)S(=O)(=O)Nc1cccc(C(=O)c2c[nH]c3ncc(-c4cnc(C)nc4)cc23)c1F (centres unmarked) [P-0231, N-[2-fluoro-3-[5-(2-methylpyrimidin-5-yl)-1H-pyrrolo[2,3-b]pyridine-3-carbonyl]phenyl]butane-2-sulfonamide] | < 1 µM |
| CN(C)S(=O)(=O)Nc1cccc(C(=O)c2c[nH]c3ncc(-c4cnc(C5CC5)nc4)cc23)c1F [P-0052, 5-(2-cyclopropylpyrimidin-5-yl)-3-[3-(dimethylsulfamoylamino)-2-fluoro-benzoyl]-1H-pyrrolo[2,3-b]pyridine] | < 1 µM |
| COc1ncc(-c2cnc3[nH]cc(C(=O)c4cccc(NS(=O)(=O)N(C)C5CC5)c4F)c3c2)cn1 [P-0025] | < 1 µM |
| CNS(=O)(=O)Nc1cccc(C(=O)c2c[nH]c3ncc(-c4cnc(OC)nc4)cc23)c1F [P-0026] | > 1 µM |
| CC(C)CN(C)S(=O)(=O)Nc1cccc(C(=O)c2c[nH]c3ncc(I)cc23)c1F [P-0070, 3-[2-fluoro-3-[[isobutyl(methyl)sulfamoyl]amino]benzoyl]-5-iodo-1H-pyrrolo[2,3-b]pyridine] | < 1 µM |
| CCN(C)S(=O)(=O)Nc1ccc(F)c(C(=O)c2c[nH]c3ncc(-c4ccc(C5(C#N)CC5)cc4)cc23)c1F [P-0239, 5-[4-(1-cyanocyclopropyl)phenyl]-3-[3-[[ethyl(methyl)sulfamoyl]amino]-2,6-difluoro-benzoyl]-1H-pyrrolo[2,3-b]pyridine] | < 1 µM |
| CCN(C)S(=O)(=O)Nc1cccc(C(=O)c2c[nH]c3ncc(-c4cnc(NC5CC5)nc4)cc23)c1F [P-0077, 5-[2-(cyclopropylamino)pyrimidin-5-yl]-3-[3-[[ethyl(methyl)sulfamoyl]amino]-2-fluoro-benzoyl]-1H-pyrrolo[2,3-b]pyridine] | < 1 µM |
| CCN(C)S(=O)(=O)Nc1ccc(F)c(C(=O)c2c[nH]c3ncc(-c4ccc5nc(N(C)C)ncc5c4)cc23)c1F [P-0313, 2-(dimethylamino)-6-[3-[3-[[ethyl(methyl)sulfamoyl]amino]-2,6-difluoro-benzoyl]-1H-pyrrolo[2,3-b]pyridin-5-yl]quinazoline] | < 1 µM |
| COc1cc(-c2cnc3[nH]cc(C(=O)c4cccc(NS(=O)(=O)N5CCCC5)c4F)c3c2)ccc1C#N [P-0049, N-[3-[5-(4-cyano-3-methoxy-phenyl)-1H-pyrrolo[2,3-b]pyridine-3-carbonyl]-2-fluoro-phenyl]pyrrolidine-1-sulfonamide] | < 1 µM |
| CCC(C)S(=O)(=O)Nc1cccc(C(=O)c2c[nH]c3ncc(-c4cnc(C(C)C)nc4)cc23)c1F (centres unmarked) [P-0229, N-[2-fluoro-3-[5-(2-isopropylpyrimidin-5-yl)-1H-pyrrolo[2,3-b]pyridine-3-carbonyl]phenyl]butane-2-sulfonamide] | < 1 µM |
| CCN(C)S(=O)(=O)Nc1cccc(C(=O)c2c[nH]c3ncc(-c4cnc(C)nc4)cc23)c1F [P-0056, 3-[3-[[ethyl(methyl)sulfamoyl]amino]-2-fluoro-benzoyl]-5-(2-methylpyrimidin-5-yl)-1H-pyrrolo[2,3-b]pyridine] | < 1 µM |
| COCCN(C)S(=O)(=O)Nc1cccc(C(=O)c2c[nH]c3ncc(-c4cnc(C5CC5)nc4)cc23)c1F [P-0085, 5-(2-cyclopropylpyrimidin-5-yl)-3-[2-fluoro-3-[[2-methoxyethyl(methyl)sulfamoyl]amino]benzoyl]-1H-pyrrolo[2,3-b]pyridine] | < 1 µM |
| CN(C)S(=O)(=O)Nc1cccc(C(=O)c2c[nH]c3ncc(-c4ccc(C5(C#N)CC5)cc4)cc23)c1F [P-0055, 5-[4-(1-cyanocyclopropyl)phenyl]-3-[3-(dimethylsulfamoylamino)-2-fluoro-benzoyl]-1H-pyrrolo[2,3-b]pyridine] | < 1 µM |
| CCC(C)S(=O)(=O)Nc1cccc(C(=O)c2c[nH]c3ncc(-c4cnc(C5CC5)nc4)cc23)c1F (centres unmarked) [P-0228, N-[3-[5-(2-cyclopropylpyrimidin-5-yl)-1H-pyrrolo[2,3-b]pyridine-3-carbonyl]-2-fluoro-phenyl]butane-2-sulfonamide] | < 1 µM |

Next, values leading:

| IC50 | SMILES |
| --- | --- |
| > 1 µM | Cc1ccnc(-c2cnc3[nH]cc(C(=O)c4cccc(NS(=O)(=O)N5CCCC5)c4F)c3c2)n1 [P-0326, N-[2-fluoro-3-[5-(4-methylpyrimidin-2-yl)-1H-pyrrolo[2,3-b]pyridine-3-carbonyl]phenyl]pyrrolidine-1-sulfonamide] |
| < 1 µM | Cc1ccc(-c2cnc3[nH]cc(C(=O)c4cccc(NS(=O)(=O)N5CCCC5)c4F)c3c2)cn1 [P-0045, N-[2-fluoro-3-[5-(6-methyl-3-pyridyl)-1H-pyrrolo[2,3-b]pyridine-3-carbonyl]phenyl]pyrrolidine-1-sulfonamide] |
| < 1 µM | CN(C)S(=O)(=O)Nc1ccc(F)c(C(=O)c2c[nH]c3ncc(-c4cnc(C5CC5)nc4)cc23)c1F [P-0238, 5-(2-cyclopropylpyrimidin-5-yl)-3-[3-(dimethylsulfamoylamino)-2,6-difluoro-benzoyl]-1H-pyrrolo[2,3-b]pyridine] |
| < 1 µM | O=C(c1c(F)ccc(NS(=O)(=O)N2CCCC2)c1F)c1c[nH]c2ncc(-c3cnc(N4CCC4)nc3)cc12 [P-0269, N-[3-[5-[2-(azetidin-1-yl)pyrimidin-5-yl]-1H-pyrrolo[2,3-b]pyridine-3-carbonyl]-2,4-difluoro-phenyl]pyrrolidine-1-sulfonamide] |
| < 1 µM | O=C(c1cccc(NS(=O)(=O)N2CCCC2)c1F)c1c[nH]c2ncc(-c3cnc(N4CCOCC4)nc3)cc12 [P-0235, N-[2-fluoro-3-[5-(2-morpholinopyrimidin-5-yl)-1H-pyrrolo[2,3-b]pyridine-3-carbonyl]phenyl]pyrrolidine-1-sulfonamide] |
| < 1 µM | O=C(c1c(F)ccc(NS(=O)(=O)N2CCCC2)c1F)c1c[nH]c2ncc(-c3ccncc3)cc12 [P-0273, N-[2,4-difluoro-3-[5-(4-pyridyl)-1H-pyrrolo[2,3-b]pyridine-3-carbonyl]phenyl]pyrrolidine-1-sulfonamide] |
| < 1 µM | CCCN(C)S(=O)(=O)Nc1ccc(F)c(C(=O)c2c[nH]c3ncc(-c4cnc(OC)nc4)cc23)c1F [P-0116, 3-[2,6-difluoro-3-[[methyl(propyl)sulfamoyl]amino]benzoyl]-5-(2-methoxypyrimidin-5-yl)-1H-pyrrolo[2,3-b]pyridine] |
| < 1 µM | O=C(c1c(F)ccc(NS(=O)(=O)N2CCCC2)c1F)c1c[nH]c2ncc(-c3cnc(N4CCNCC4)nc3)cc12 [P-0261, N-[2,4-difluoro-3-[5-(2-piperazin-1-ylpyrimidin-5-yl)-1H-pyrrolo[2,3-b]pyridine-3-carbonyl]phenyl]pyrrolidine-1-sulfonamide] |
| < 1 µM | Nc1nccc(-c2cnc3[nH]cc(C(=O)c4c(F)ccc(NS(=O)(=O)N5CCCC5)c4F)c3c2)n1 [P-0280, N-[3-[5-(2-aminopyrimidin-4-yl)-1H-pyrrolo[2,3-b]pyridine-3-carbonyl]-2,4-difluoro-phenyl]pyrrolidine-1-sulfonamide] |
| < 1 µM | O=C(c1c(F)ccc(NS(=O)(=O)N2CC[C@@H](F)C2)c1F)c1c[nH]c2ncc(-c3cnc(C4CC4)nc3)cc12 [P-0338, (3R)—N-[3-[5-(2-cyclopropylpyrimidin-5-yl)-1H-pyrrolo[2,3-b]pyridine-3-carbonyl]-2,4-difluoro-phenyl]-3-fluoro-pyrrolidine-1-sulfonamide] |
| < 1 µM | O=C(c1c(F)ccc(NS(=O)(=O)N2CCC(F)C2)c1F)c1c[nH]c2ncc(-c3cnc(C4CC4)nc3)cc12 (centres unmarked) [P-0339, N-[3-[5-(2-cyclopropylpyrimidin-5-yl)-1H-pyrrolo[2,3-b]pyridine-3-carbonyl]-2,4-difluoro-phenyl]-3-fluoro-pyrrolidine-1-sulfonamide] |
| < 1 µM | COc1ccnc(-c2cnc3[nH]cc(C(=O)c4cccc(NS(=O)(=O)N5CCCC5)c4F)c3c2)n1 [P-0325, N-[2-fluoro-3-[5-(4-methoxypyrimidin-2-yl)-1H-pyrrolo[2,3-b]pyridine-3-carbonyl]phenyl]pyrrolidine-1-sulfonamide] |
| < 1 µM | CCN(C)S(=O)(=O)Nc1ccc(F)c(C(=O)c2c[nH]c3ncc(-c4cnc(N5CCCC5)nc4)cc23)c1F [P-0293, 3-[3-[[ethyl(methyl)sulfamoyl]amino]-2,6-difluoro-benzoyl]-5-(2-pyrrolidin-1-ylpyrimidin-5-yl)-1H-pyrrolo[2,3-b]pyridine] |
